In patent publication US20060079453A1, “Hla binding peptides and their uses” (priority 2002, published 2006):

Legend:
Assay in all cases: biochemical
Type in all cases: binding
HLA-DR DRB1*0802 (DR8) = HLA-DR DRB1*0802 (DR8) (Homo sapiens, UniProt P01903+P01911, A100R/A103L/A169T/F76Y/H45Y/I96F/K41T/L162R/M171V/P40S/Q125H/Q178H/Q39Y/Q99D/R218S/R42G/S66Y/V115G/W38E)
HLA-DR DRB1*0701 (DR7) = HLA-DR DRB1*0701 (DR7) (Homo sapiens, UniProt P01903+P01911, A100R/A102G/A103Q/D57E/D86V/E43K/F76Y/K127E/L162R/M171V/P40G/Q125H/Q99D/R33Q/R42Y/R54Q/S133A/S66F/T210M/V115G/Y107V/Y59L/Y89S); conditions: DRB1 *0701
HLA-DR DRB1*1501 (DR15) = HLA-DR DRB1*1501 (DR15) (Homo sapiens, UniProt P01903+P01911); conditions: DRBI *1501
HLA-DR DRB5*0101 (DR51) = HLA-DR DRB5*0101 (DR51) (Homo sapiens, UniProt P01903+Q30154); conditions: DRB5 *0101
HLA-DR DRB1*0901 (DR9) = HLA-DR DRB1*0901 (DR9) (Homo sapiens, UniProt P01903+P01911, A100R/A103E/D57H/D86V/F55Y/F60I/F76Y/I96F/K127E/L162R/M171V/P40D/Q125H/Q99R/R33Q/R42F/S133A/S66N/T210M/V115G/W38K/Y107V/Y59G/Y89S); conditions: DRB1 *0901
HLA-DR DRB1*1101 (DR11) = HLA-DR DRB1*1101 (DR11) (Homo sapiens, UniProt P01903+P01911, A100R/A169T/A87E/I96F/K41T/L162R/M171V/P40S/Q125H/Q178H/Q39Y/Q99D/R42S/S66Y/T262R/V115G/W38E); conditions: DRB1 *1101
HLA-DR DRB1*0101 (DR1) = HLA-DR DRB1*0101 (DR1) (Homo sapiens, UniProt P01903+P01911, A100R/D57E/F55L/F60I/F76Y/I96L/L162R/M171V/P40L/Q125E/R42F/V115G/Y59C); conditions: DRB1 *0101
HLA-DR DRB3*0101 (DR52) = HLA-DR DRB3*0101 (DR52) (Homo sapiens, UniProt P01903+P79483)
HLA-DR DRB1*1302 (DR13) = HLA-DR DRB1*1302 (DR13) (Homo sapiens, UniProt P01903+P01911, A100E/A169T/K41T/L162R/M171V/P40S/Q125H/Q178H/Q39Y/Q99D/R42S/S66N/T262R/V115G/W38E/Y61H); conditions: DRBI *1302
HLA-DR DRB1*0401 (DR4) = HLA-DR DRB1*0401 (DR4) (Homo sapiens, UniProt P01903+P01911, A100K/A169T/F76Y/I96L/K127E/L162R/M171V/N62H/P40V/Q125Y/R42H/S133A/S149N/S66Y/V115G/V209L/W38E); conditions: DRB1 *0401
HLA-DR DRB4*0101 (DR53) = HLA-DR DRB4*0101 (DR53) (Homo sapiens, UniProt P01903+P13762, G164S); conditions: DRB4 *0101

Sequence of HLA-DR DRB1*1302 (DR13) (P01903 26-254 limits assumed, other chains not shown): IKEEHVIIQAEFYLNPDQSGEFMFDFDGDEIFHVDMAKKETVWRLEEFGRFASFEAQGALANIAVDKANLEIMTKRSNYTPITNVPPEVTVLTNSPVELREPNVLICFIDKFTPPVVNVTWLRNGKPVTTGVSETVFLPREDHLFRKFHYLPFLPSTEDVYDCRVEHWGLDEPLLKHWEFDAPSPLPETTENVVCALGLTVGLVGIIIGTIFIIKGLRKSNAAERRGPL
Sequence of HLA-DR DRB1*1101 (DR11) (P01903 26-254 limits assumed, other chains not shown): as above

SMILES | IC50 (HLA-DR DRB1*0802 (DR8)) | IC50 (HLA-DR DRB1*0701 (DR7)) | IC50 (HLA-DR DRB1*1501 (DR15)) | IC50 (HLA-DR DRB5*0101 (DR51)) | IC50 (HLA-DR DRB1*0901 (DR9)) | IC50 (HLA-DR DRB1*1101 (DR11)) | IC50 (HLA-DR DRB1*0101 (DR1)) | IC50 (HLA-DR DRB3*0101 (DR52)) | IC50 (HLA-DR DRB1*1302 (DR13)) | IC50 (HLA-DR DRB1*0401 (DR4)) | IC50 (HLA-DR DRB4*0101 (DR53))
CC[C@H](C)[C@H](NC(=O)[C@@H]1CCCN1C(=O)[C@H](Cc1c[nH]cn1)NC(=O)[C@@H](NC(=O)[C@@H]1CCCN1C(=O)[C@@H](NC(=O)[C@H](CO)NC(=O)[C@@H]1CCCN1C(=O)[C@H](CC(C)C)NC(=O)CNC(=O)[C@@H](NC(=O)[C@H](C)NC(=O)[C@H](CCC(=O)O)NC(=O)[C@H](C)N)C(C)C)[C@@H](C)CC)C(C)C)C(=O)NCC(=O)O | > 490 µM | 2.02 µM | 0.056 µM | 69.3 µM | 23.1 µM | > 66.7 µM | 0.0054 µM | > 11.8 µM | 5.46 µM | 9.92 µM | –
CC[C@H](C)[C@H](NC(=O)[C@H](CO)NC(=O)[C@H](CC(C)C)NC(=O)[C@@H](NC(=O)[C@H](CC(C)C)NC(=O)[C@@H](N)CC(=O)O)C(C)C)C(=O)N[C@@H](C)C(=O)N[C@@H](CC(C)C)C(=O)N[C@@H](CO)C(=O)N[C@H](C(=O)NCC(=O)N[C@@H](CS)C(=O)N[C@H](C(=O)NCC(=O)N[C@@H](C)C(=O)O)[C@@H](C)O)C(C)C | > 245 µM | 4.03 µM | 18.2 µM | > 100 µM | 2.2 µM | > 200 µM | 1.2 µM | > 14.9 µM | 0.098 µM | 13 µM | 0.459 µM
CC(C)C[C@H](NC(=O)[C@H](CCC(=O)O)NC(=O)[C@H](CCCCN)NC(=O)[C@H](C)NC(=O)[C@H](CC(C)C)NC(=O)[C@@H](NC(=O)[C@H](CO)NC(=O)[C@H](CCCNC(=N)N)NC(=O)[C@@H](N)CC(=O)O)C(C)C)C(=O)N[C@@H](CCCCN)C(=O)N[C@@H](Cc1ccccc1)C(=O)N[C@H](C(=O)N[C@H](C(=O)N[C@@H](CC(C)C)C(=O)N[C@H](C(=O)O)C(C)C)[C@@H](C)O)C(C)C | 15.8 µM | 2.02 µM | 1.36 µM | 2.22 µM | 4.72 µM | 21 µM | – | > 14.4 µM | 4.41 µM | – | 0.053 µM
CC[C@H](C)[C@H](NC(=O)[C@@H](NC(=O)[C@@H]1CCCN1C(=O)CNC(=O)[C@@H](NC(=O)[C@H](CC(C)C)NC(=O)[C@H](CCC(=O)O)NC(=O)[C@H](C)NC(=O)[C@@H](N)Cc1ccccc1)C(C)C)C(C)C)C(=O)N1CCC[C@H]1C(=O)N[C@@H](CCC(N)=O)C(=O)N[C@@H](CC(=O)O)C(=O)N[C@@H](Cc1c[nH]c2ccccc12)C(=O)N[C@@H](CO)C(=O)N[C@H](C(=O)O)[C@@H](C)O | > 245 µM | 24.1 µM | > 45.5 µM | > 200 µM | 39.5 µM | > 50 µM | 0.012 µM | > 15 µM | > 35 µM | – | 0.983 µM
CC[C@H](C)[C@H](NC(=O)[C@@H](N)CC(C)C)C(=O)N[C@@H](CCSC)C(=O)N[C@@H](Cc1ccc(O)cc1)C(=O)N[C@@H](CO)C(=O)N[C@@H](C)C(=O)N[C@@H](Cc1c[nH]cn1)C(=O)N[C@@H](CC(=O)O)C(=O)N[C@H](C(=O)N[C@H](C(=O)N[C@H](C(=O)N[C@@H](CO)C(=O)NCC(=O)N[C@@H](CC(C)C)C(=O)N[C@@H](CCC(N)=O)C(=O)O)C(C)C)[C@@H](C)O)[C@@H](C)O | 24.8 µM | – | 0.184 µM | > 100 µM | 0.813 µM | > 66.7 µM | 4.5 µM | 6.83 µM | 1.75 µM | 0.024 µM | 4.38 µM
CSCC[C@H](NC(=O)[C@H](CC(=O)O)NC(=O)[C@H](Cc1ccc(O)cc1)NC(=O)[C@H](CC(C)C)NC(=O)[C@@H]1CCCN1C(=O)[C@H](Cc1c[nH]cn1)NC(=O)[C@@H]1CCCN1)C(=O)N[C@@H](CO)C(=O)N[C@@H](CC(C)C)C(=O)N[C@@H](CC(C)C)C(=O)N[C@@H](CCCCN)C(=O)N[C@@H](CC(N)=O)C(=O)N[C@@H](CCCNC(=N)N)C(=O)N[C@@H](Cc1ccccc1)C(=O)N[C@@H](CC(C)C)C(=O)O | 29.8 µM | 10.7 µM | 0.712 µM | 3.1 µM | 12.8 µM | > 50 µM | – | > 13.5 µM | 11.7 µM | 20.8 µM | 7.49 µM
CSCC[C@H](NC(=O)[C@H](CCC(=O)O)NC(=O)[C@H](CCC(N)=O)NC(=O)[C@@H]1CCCN1)C(=O)N[C@@H](CCCCN)C(=O)N[C@H](C(=O)N[C@@H](Cc1ccc(O)cc1)C(=O)N[C@@H](CO)C(=O)N[C@H](C(=O)N[C@@H](CO)C(=O)N[C@@H](Cc1ccccc1)C(=O)N[C@@H](CC(=O)O)C(=O)N[C@@H](CO)C(=O)N[C@@H](CC(C)C)C(=O)N[C@@H](Cc1ccccc1)C(=O)O)C(C)C)[C@@H](C)O | > 98 µM | – | 0.919 µM | ≥ 100 µM | 1.98 µM | > 50 µM | 15.1 µM | 14.6 µM | 24.7 µM | 3.02 µM | 0.579 µM
